# In publication PMC4022547 (Molecular Brain, 2014):
# Where “and” joins values, the source holds several entries; their conditions need not be identical. Equal entries are not always repeated.
# Key:
# [1] = target: hα6(S156R) + hβ4 + hβ3 nAChR (Homo sapiens, UniProt P30926+Q15825, S156R); conditions: nicotine
# Experimental: (§1) We planned to introduce identical amounts of cRNA, presumably producing equal amounts of each subunit protein, into oocytes largely due to lack of information about the levels of mRNA for each subunits that compose α6*-nAChRs in neurons or other cells. Concentrations of cRNAs for each nAChR α and β subunits (WT, mutant or variant) were adjusted to 500 ng μL^−1. We provisionally assumed that hα6 or its variants in association with hβ2 or hβ4 subunits would form complexes having 2:3 and/or 3:2 ratios of the indicated subunits and that oocytes also injected with WT or mutant form of β3 subunits (i.e., β3^V9’S) would express nAChR with 2:2:1 ratios of α:β:(β3 or β3^V9’S) subunits. For expression of binary nAChRs (i.e., two subunit containing nAChRs; α + β but not β3) cRNA mixtures were prepared by mixing 1 μL of cRNA for each subunit and an additional μL of RNAse free water (i.e., total volume 3 μL). Similarly for expression of ternary nAChRs [i.e., three subunit containing nAChRs; (α + β) + (β3 or β3^V9’S)] cRNA mixtures were prepared by mixing 1 μL of cRNA for each subunit. Several preparations of each mixture were prepared and stored at −80°C until further use. Injection of 138 nL of cRNA, out of 3 μL cRNA mixtures, into each oocyte would deliver ~23 ng of cRNA for each subunit whether binary or ternary nAChRs are expressed.
# (§2) Two to 5 days after injection, oocytes were placed in a small-volume chamber and continuously perfused with OR2. The chamber was grounded through an agarose bridge. The oocytes were voltage-clamped at −70 mV (unless otherwise noted) to measure agonist or antagonist induced currents using Axoclamp 900A and pClamp 10.2 software (Molecular Devices, Sunnyvale, CA). The current signal was low-pass filtered at 10 Hz with the built-in low-pass Bessel filter in the Axoclamp 900A and digitized at 20 Hz with Axon Digidata1440A and pClamp10. […] Drugs (agonists and antagonists) were prepared daily in OR2. Drug was applied using a Valvelink 8.2 perfusion system (Automate scientific, Berkeley, CA). […] Then for the purpose of comparison electrophysiological recordings were performed in a given day in a given batch of oocytes following the same order of injections. […] All hβ4*-nAChR recordings were done in similar conditions to facilitate comparisons between hα6hβ4- and hα6hβ4hβ3-nAChRs. All electrophysiological measurements were conducted or checked in at least two batches of oocytes.
# (§3) Raw data was collected and processed in part using pClamp 10.2 (Molecular Devices, Sunnyvale, CA), Origin 7.5 (OriginLab Corporation, Northampton, MA) and a spreadsheet (Excel; Microsoft, Bellevue, WA). Peak current amplitudes (Imax) are reported as mean ± SEM (for results from at least three oocytes, i.e., n = 3).
# [2] = target: hα6(D92E) + hβ4 + hβ3 nAChR (Homo sapiens, UniProt P30926+Q15825, D92E); conditions: 100 μM nicotine; oocytes clamped at −70 mV
# Experimental: as §1, §2, §3
# hα6(N203T) + hβ4 nAChR = hα6(N203T) + hβ4 nAChR (Homo sapiens, UniProt P30926+Q15825, N203T); conditions: 100 μM nicotine; oocytes clamped at −70 mV
# Experimental: as §1, §2, §3
# [3] = system: hα6(D199Y) + WT hβ2 + hβ3^V9’S nAChR; conditions: 100 μM nicotine; higher, p < 0.05
# Experimental: as §1, §2, §3
# [4] = target: hα6 + WT hβ2 + hβ3^V9’S nAChR (Homo sapiens, UniProt P17787+Q15825); conditions: 100 μM nicotine; 3 days after cRNA injection
# Experimental: as §1, §2, §3
# [5] = target: hα6(S156R) + WT hβ2 + hβ3^V9’S nAChR (Homo sapiens, UniProt P17787+Q15825, S156R); conditions: nicotine
# Experimental: as §1, §2, §3
# [6] = target: hα6(R87C) + hβ4 + hβ3 nAChR (Homo sapiens, UniProt P30926+Q15825, R87C); conditions: nicotine
# Experimental: as §1, §2, §3
# [7] = system: hα6(R96H) + WT hβ2 + hβ3^V9’S nAChR; conditions: 100 μM nicotine; higher, p < 0.05
# Experimental: as §1, §2, §3
# [8] = target: hα6(D92E) + codon optimized hβ2 + hβ3^V9’S nAChR (Homo sapiens, UniProt P17787+Q15825, D92E); conditions: 100 μM nicotine; oocytes clamped at −70 mV
# Experimental: as §1, §2, §3
# [9] = target: hα6(E101K) + hβ4 + hβ3 nAChR (Homo sapiens, UniProt P30926+Q15825, E101K); conditions: 100 μM nicotine; oocytes clamped at −70 mV
# Experimental: as §1, §2, §3
# [10] = target: hα6(R96H) + codon optimized hβ2 + hβ3^V9’S nAChR (Homo sapiens, UniProt P17787+Q15825, R96H); conditions: 100 μM nicotine; oocytes clamped at −70 mV
# Experimental: as §1, §2, §3
# [11] = target: hα6(S43P) + WT hβ2 + hβ3^V9’S nAChR (Homo sapiens, UniProt P17787+Q15825, S43P); conditions: nicotine
# Experimental: as §1, §2, §3
# [12] = target: hα6(I226T) + codon optimized hβ2 + hβ3^V9’S nAChR (Homo sapiens, UniProt P17787+Q15825, I226T); conditions: 100 μM nicotine; oocytes clamped at −70 mV
# Experimental: as §1, §2, §3
# [13] = target: hα6(N171K) + hβ4 + hβ3 nAChR (Homo sapiens, UniProt P30926+Q15825, N171K); conditions: nicotine
# Experimental: as §1, §2, §3
# hα6(D92E) + hβ4 nAChR = hα6(D92E) + hβ4 nAChR (Homo sapiens, UniProt P30926+Q15825, D92E); conditions: 100 μM nicotine; oocytes clamped at −70 mV
# Experimental: as §1, §2, §3
# [14] = target: hα6(D92E) + WT hβ2 + hβ3^V9’S nAChR (Homo sapiens, UniProt P17787+Q15825, D92E); conditions: nicotine
# Experimental: as §1, §2, §3
# [15] = target: hα6(E101K) + codon optimized hβ2 + hβ3^V9’S nAChR (Homo sapiens, UniProt P17787+Q15825, E101K); conditions: 100 μM nicotine; oocytes clamped at −70 mV
# Experimental: as §1, §2, §3
# [16] = target: hα6(D199Y) + codon optimized hβ2 + hβ3^V9’S nAChR (Homo sapiens, UniProt P17787+Q15825, D199Y); conditions: 100 μM nicotine; oocytes clamped at −70 mV
# Experimental: as §1, §2, §3
# Chain of hα6 + WT hβ2 + hβ3^V9’S nAChR (Q15825 26-494): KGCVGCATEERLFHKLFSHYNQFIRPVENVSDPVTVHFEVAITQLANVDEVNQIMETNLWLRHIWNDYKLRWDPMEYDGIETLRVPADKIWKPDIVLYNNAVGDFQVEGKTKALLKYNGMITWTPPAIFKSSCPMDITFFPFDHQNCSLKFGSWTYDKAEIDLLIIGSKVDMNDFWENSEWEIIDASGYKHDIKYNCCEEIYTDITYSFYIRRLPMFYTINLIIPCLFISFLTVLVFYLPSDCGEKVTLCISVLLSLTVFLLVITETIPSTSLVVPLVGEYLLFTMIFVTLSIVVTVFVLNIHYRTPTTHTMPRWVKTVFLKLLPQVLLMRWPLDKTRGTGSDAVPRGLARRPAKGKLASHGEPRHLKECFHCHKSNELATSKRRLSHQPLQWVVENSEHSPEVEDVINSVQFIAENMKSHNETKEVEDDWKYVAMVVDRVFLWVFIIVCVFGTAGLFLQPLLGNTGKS
# Chain of hα6 + WT hβ2 + hβ3^V9’S nAChR (P17787 26-502): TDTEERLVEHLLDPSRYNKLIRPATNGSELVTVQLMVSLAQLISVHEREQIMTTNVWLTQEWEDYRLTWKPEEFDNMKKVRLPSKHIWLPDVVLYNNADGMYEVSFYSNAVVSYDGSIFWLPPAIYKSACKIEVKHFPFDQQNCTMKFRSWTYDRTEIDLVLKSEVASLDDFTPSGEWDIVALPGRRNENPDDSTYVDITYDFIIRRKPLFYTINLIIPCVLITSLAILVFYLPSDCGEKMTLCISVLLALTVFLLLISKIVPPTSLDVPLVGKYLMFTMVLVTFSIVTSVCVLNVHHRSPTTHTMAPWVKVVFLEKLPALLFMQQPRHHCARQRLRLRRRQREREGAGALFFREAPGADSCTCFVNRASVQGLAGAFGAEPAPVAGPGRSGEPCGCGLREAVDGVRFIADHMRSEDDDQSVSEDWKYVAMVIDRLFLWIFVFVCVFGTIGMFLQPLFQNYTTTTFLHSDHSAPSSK
# Chain of hα6 + WT hβ2 + hβ3^V9’S nAChR (Q05901 22-458 V273S partner): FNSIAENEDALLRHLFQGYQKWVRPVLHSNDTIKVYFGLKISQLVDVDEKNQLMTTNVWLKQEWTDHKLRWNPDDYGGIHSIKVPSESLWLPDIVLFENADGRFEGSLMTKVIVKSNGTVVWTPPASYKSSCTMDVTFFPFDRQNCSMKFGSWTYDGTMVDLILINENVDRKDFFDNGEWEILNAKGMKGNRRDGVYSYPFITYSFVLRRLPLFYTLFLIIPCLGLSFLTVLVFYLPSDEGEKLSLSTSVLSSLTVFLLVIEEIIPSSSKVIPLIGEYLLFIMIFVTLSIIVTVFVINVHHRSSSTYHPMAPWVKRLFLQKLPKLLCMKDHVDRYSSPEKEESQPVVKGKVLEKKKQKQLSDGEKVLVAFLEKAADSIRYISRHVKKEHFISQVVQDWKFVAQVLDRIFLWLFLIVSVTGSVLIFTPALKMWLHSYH
# Chain of hα6(D92E) + hβ4 nAChR (Q15825 26-494 D92E): as the sequence (Q15825 26-494) above, with D67E counted along it
# Chain of hα6(D92E) + hβ4 nAChR (P30926 22-498): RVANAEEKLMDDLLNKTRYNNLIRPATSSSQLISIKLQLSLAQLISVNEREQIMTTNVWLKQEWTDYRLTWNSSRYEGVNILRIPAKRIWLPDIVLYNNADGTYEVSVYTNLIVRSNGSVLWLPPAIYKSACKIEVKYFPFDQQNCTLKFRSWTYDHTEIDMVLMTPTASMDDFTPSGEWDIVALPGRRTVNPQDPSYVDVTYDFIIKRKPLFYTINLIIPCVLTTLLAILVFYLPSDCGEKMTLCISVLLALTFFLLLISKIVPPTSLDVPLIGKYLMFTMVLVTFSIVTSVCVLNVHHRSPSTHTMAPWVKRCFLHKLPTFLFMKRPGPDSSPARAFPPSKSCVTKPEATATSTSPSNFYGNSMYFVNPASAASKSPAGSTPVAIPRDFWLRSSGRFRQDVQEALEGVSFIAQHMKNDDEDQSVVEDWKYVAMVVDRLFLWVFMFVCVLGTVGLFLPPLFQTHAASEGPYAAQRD
# Chain of hα6(D92E) + codon optimized hβ2 + hβ3^V9’S nAChR (Q15825 26-494 D92E): as the sequence (Q15825 26-494) above, with D67E counted along it
# Chain of hα6(D92E) + codon optimized hβ2 + hβ3^V9’S nAChR (P17787 26-502): as the sequence (P17787 26-502) above
# Chain of hα6(D92E) + codon optimized hβ2 + hβ3^V9’S nAChR (Q05901 25-458 V273S partner limits assumed): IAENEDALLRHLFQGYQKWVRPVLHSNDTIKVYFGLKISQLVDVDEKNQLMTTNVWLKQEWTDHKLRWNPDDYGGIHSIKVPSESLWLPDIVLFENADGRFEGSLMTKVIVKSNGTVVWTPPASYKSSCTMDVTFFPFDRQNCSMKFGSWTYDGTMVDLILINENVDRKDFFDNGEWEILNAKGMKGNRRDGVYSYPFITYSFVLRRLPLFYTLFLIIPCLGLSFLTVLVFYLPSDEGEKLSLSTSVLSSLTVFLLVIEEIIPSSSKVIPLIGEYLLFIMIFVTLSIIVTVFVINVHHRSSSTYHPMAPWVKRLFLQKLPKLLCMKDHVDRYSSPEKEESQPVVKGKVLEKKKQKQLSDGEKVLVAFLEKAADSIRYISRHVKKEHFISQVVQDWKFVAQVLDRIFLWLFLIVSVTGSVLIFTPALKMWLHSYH
# Chain of hα6(R87C) + hβ4 + hβ3 nAChR (Q15825 26-494 R87C): as the sequence (Q15825 26-494) above, with R62C counted along it
# Chain of hα6(R87C) + hβ4 + hβ3 nAChR (P30926 22-498): as the sequence (P30926 22-498) above
compound,measurement,setting,value
"CN1CCC[C@H]1c1cccnc1 [nicotine, L-nicotine]",current response,[1],did not elicit current responses
same,Mean (±SE) peak current response,[2],126 ± 5 nA
same,"peak current (Imax, mean ± SE)",hα6(N203T) + hβ4 nAChR,33 ± 3 nA
same,peak current response relative to hα6hβ2hβ3^V9’S-nAChRs,[3],2-5 fold
same,peak current response,[4],15 ± 2 nA and 15-30 nA
same,current response,[5],did not yield current responses
same,current response,[6],did not elicit current responses
same,peak current response relative to hα6hβ2hβ3^V9’S-nAChRs,[7],2-5 fold
same,"peak current (Imax, mean ± SE)",[8],66 ± 20 nA
same,Mean (±SE) peak current response,[9],467 ± 54 nA
same,"peak current (Imax, mean ± SE)",[10],1075 ± 175 nA
same,current response,[11],did not yield current responses
same,"peak current (Imax, mean ± SE)",[12],753 ± 137 nA
same,current response,[13],did not elicit current responses
same,"peak current (Imax, mean ± SE)",hα6(D92E) + hβ4 nAChR,19 ± 2 nA
same,current response,[14],did not yield current responses
same,"peak current (Imax, mean ± SE)",[15],551 ± 156 nA
same,"peak current (Imax, mean ± SE)",[16],2076 ± 68 nA
